Data as given in article PMC9571953, “Discovery of New VEGFR-2 Inhibitors: Design, Synthesis, Anti-Proliferative Evaluation, Docking, and MD Simulation Studies” (Molecules, 2022).

Tests used:
[1] = target: Human VEGFR-2 (Homo sapiens, UniProt P35968); assay: In vitro VEGFR-2 enzyme inhibition assay (ELISA kit)
Method: The ability of the four synthesized congeners to inhibit the VEGFR-2 enzyme in HCT-116 cells was also evaluated.
✓ Assessment of VEGFR-2 inhibition

[2] = system: HCT-116; assay: In vitro anti-proliferative activity (MTT); format: cell-based; details: Homo sapiens, mean ± S.D. of three experiments, read-out: In Vitro Cytotoxicity IC50 HCT-116
Method: (§1) The latter cells were selected owing to their VEGFR-2 overabundance.
(§2) Was conducted the experiment by the MTT procedure. In-depth discussions have been held in the Supplementary Data. […]
(§3) ✓ In vitro anti-proliferative activity against HepG-2 and HCT-116
(§4) The cells were cultured in RPMI-1640 medium supplemented with 10% fetal bovine serum (FBS), penicillin (100 unit /mL) and streptomycin sulphate (100µg/mL) at 37 °C in a 5% CO2 incubator.
(§5) Then, cells were dropped in 96-well plates at a density of 3-8 × 10^3 cells/well and incubated for two days in a 5% CO2 incubator at 37 °C. Then, the cells were treated with the synthesized compounds and the cell cultures were continued incubated for 24 h. However, Different concentrations of the compound under test (0.0, 5.0, 12.5, 25.0 and 50 mg/ml) were added to the cell monolayer. Then, (3-[4,5-dimethylthiazol-2-yl]- 2,5-diphenyltetrazolium bromide) MTT solution (20 µl, 5mg/mL) was added to each well and incubated for additional 4 h. The formed purple crystals of MTT-formazan were dissolved in 100 µl DMSO each well; the absorbance of each well was measured at 570 nm using a plate reader (EXL 800, USA). All compounds were tested three times. The relative cell viability in percentage was calculated. The results for IC50 values of the active compounds are […]
(§6) The data represented the mean of three independent experiments in triplicate and were expressed as means ± SD. […]

[3] = system: HepG-2; assay: In vitro anti-proliferative activity (MTT); format: cell-based; details: Homo sapiens, HepG2, mean ± S.D. of three experiments, read-out: In Vitro Cytotoxicity IC50 HepG-2
Method: as §1, §2, §3, §4, §5, §6

[4] = system: interleukin 6 (IL6); assay: In vitro immunomodulatory assay, IL6; format: cell-based; details: HCT-116 cells
Method: (§7) The immunomodulatory potentialities of congeners 6 and 7 on HCT-116 cells was also assayed. Two well-defined immunity markers, human tumor necrosis factor alpha (TNF-α), and interleukin 6 (IL6), were measured following the treatment with each compound. In addition, dexamethasone was co-assayed as a reference drug. A considerable reduction in both markers was noticed regarding the two compounds (Table 4).

[5] = system: human tumor necrosis factor alpha (TNF-α); assay: In vitro immunomodulatory assay, TNF-α; format: cell-based; details: HCT-116 cells
Method: as §7

[6] = system: VEGFR-2; details: Reported nicotinamide VEGFR-2 inhibitor, Figure 2; no reference given; cited from earlier work
[7] = system: HCT-116 cells; assay: Annexin-V/propidium iodide apoptosis assay; format: cell-based; details: HCT-116, 9.3 µM of compound 6, 48 h
Method: Both extrinsic and intrinsic apoptosis induced by compound 6 in HCT-116 cells was assayed through Annexin-V/propidium iodide staining assay. Marked induction of both early and late apoptosis was observed upon treating HCT-116 cells with 6. […]
Apoptotic activity of compound 6 was evaluated using Annexin V-FITC/PI apoptosis detection kit.
HCT-116 cells ([…]) were seeded and incubated with compound 6 for 48 h, trypsinized, collected and washed with phosphate-buffered saline (PBS) several times; […] cells were stained with […]
Annexin V fluorescein isothiocyanate (FITC) and counterstained with propidium iodide (PI) for 15 min at 37 °C in the dark using the apoptosis detection kit (BD Biosciences, San Jose, CA) according to the manufacturer's protocol. Then, Annexin V-FITC and PI binding were analyzed by a FACS […]
Crystal structure of VEGFR-2 [PDB ID: 2OH4, resolution: 2.07 Å] was obtained from Protein Data Bank. The docking investigation was accomplished using MOE 2014 software. At first, the crystal structure of VEGFR-2 was prepared by removing water molecules. Only one chain was retained beside the co-crystallized ligand. Then, the selected chain was protonated and subjected to minimization of energy process. Next, the active site of the target protein was defined.
Structures of the synthesized compounds and sorafenib (as reference standard) were drawn using ChemBioDraw Ultra 14.0 and saved as MDL-SD format. Such file was opened using MOE to display the 3D structures which were protonated and subjected to energy minimization. Formerly, validation of the docking process was performed by docking the co-crystallized ligand against the isolated pocket of active site. The produced RMSD value indicated the validity of process. Finally, docking of the tested compounds was done through the dock option inserted in compute window.
For each docked molecule, 30 docked poses were produced using ASE for scoring function and force field for refinement. The results of the docking process were then visualized using Discovery […]
ADMET descriptors (absorption, distribution, metabolism, excretion and toxicity) of the compounds were determined using Discovery studio 4.0. At first, the CHARMM force field was applied then the tested compounds were prepared and minimized according to the preparation of small molecule protocol. Then ADMET descriptors protocol was applied to carry out these studies.
The toxicity parameters of the synthesized compounds were calculated using Discovery studio 4.0.
Sorafenib was used as a reference drug. At first, the CHARMM force field was applied then the […]

[8] = system: HCT-116 cells; assay: Flow cytometry cell cycle analysis (PI staining); format: cell-based; details: HCT-116, 9.3 µM of compound 6, 48 h
Method: It was clear from the obtained results that member 6 arrested cell cycle progression at the phase G2-M, as it caused a significant elevation of the cell levels by 35.84% versus 12.91% accumulation of the control cells.
Were conducted propidium iodide (PI) staining and flow cytometry analysis.. In-depth discussions have been held in the Supplementary Data. […]
and were expressed as means ± SD. […]
HCT-116 cells were grown in six-well plates (each one contains 2 x 10^5 cells per well) containing 10% foetal bovine serum and incubated for 24 h at 37 °C and 5% CO2. The medium was replaced with (DMSO 1% v/v) containing the 9.3 µM of compound 6, then incubated for 48 h, collected and washed with cold phosphate buffered saline (PBS). After fixation of the collected cells with ice-cold […] ethanol (70%), the cells were rinsed with PBS then stained with the DNA fluorochrome PI, kept for 15 min at 37 °C. Then samples were analyzed with a FACS Caliber flow cytometer. […]

Sequence of Human VEGFR-2 (P35968 20-1356): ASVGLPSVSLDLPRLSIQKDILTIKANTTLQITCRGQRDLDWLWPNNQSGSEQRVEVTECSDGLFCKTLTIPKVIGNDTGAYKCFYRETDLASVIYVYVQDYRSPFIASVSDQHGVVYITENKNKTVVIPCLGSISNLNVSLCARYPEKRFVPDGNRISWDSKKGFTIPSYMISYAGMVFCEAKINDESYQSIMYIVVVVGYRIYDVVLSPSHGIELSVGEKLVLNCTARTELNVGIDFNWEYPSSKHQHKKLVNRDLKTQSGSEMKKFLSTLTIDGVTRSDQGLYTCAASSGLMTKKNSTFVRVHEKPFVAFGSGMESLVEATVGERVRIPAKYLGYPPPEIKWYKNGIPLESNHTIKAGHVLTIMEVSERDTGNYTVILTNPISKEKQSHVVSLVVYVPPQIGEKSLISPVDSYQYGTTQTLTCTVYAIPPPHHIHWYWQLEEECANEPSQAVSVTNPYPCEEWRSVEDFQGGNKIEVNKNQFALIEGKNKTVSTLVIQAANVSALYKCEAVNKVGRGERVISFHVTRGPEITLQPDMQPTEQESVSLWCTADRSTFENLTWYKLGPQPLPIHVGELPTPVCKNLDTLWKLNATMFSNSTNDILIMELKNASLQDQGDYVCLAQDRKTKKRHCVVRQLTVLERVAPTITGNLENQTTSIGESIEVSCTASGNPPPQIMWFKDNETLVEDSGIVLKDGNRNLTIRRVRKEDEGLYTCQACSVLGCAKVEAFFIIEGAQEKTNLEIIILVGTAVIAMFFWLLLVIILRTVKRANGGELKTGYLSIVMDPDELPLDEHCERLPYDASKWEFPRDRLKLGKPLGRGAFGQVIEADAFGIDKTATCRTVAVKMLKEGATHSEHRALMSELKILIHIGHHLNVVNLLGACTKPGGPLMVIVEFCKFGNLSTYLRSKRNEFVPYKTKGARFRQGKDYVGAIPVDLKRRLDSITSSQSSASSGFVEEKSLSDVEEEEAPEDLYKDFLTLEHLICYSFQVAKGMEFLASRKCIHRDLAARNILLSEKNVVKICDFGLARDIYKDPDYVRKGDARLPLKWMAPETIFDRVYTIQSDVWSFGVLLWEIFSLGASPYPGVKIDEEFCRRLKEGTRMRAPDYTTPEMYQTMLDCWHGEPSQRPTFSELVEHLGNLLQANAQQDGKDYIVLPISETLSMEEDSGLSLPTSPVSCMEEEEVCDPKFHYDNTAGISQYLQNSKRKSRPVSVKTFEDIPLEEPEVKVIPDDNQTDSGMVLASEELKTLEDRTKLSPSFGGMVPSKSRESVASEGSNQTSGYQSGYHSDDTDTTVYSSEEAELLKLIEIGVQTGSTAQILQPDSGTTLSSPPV

In the case of `O=C(NN=Cc1ccccc1O)c1ccc(NC(=O)c2cccnc2)cc1` [Compound 7, N-{4-[2-(2-Hydroxybenzylidene)hydrazine-1-carbonyl]phenyl}nicotinamide], the IC50 [1] is reported as 0.129 ± 0.00832 µM, the IC50 [2] is reported as 15.9 ± 0.041 µM and the IC50 [3] is reported as 10.2 ± 0.035 µM. The “% Inhibition of IL6 pg/mL” value [4] was 52.75% and the “% Inhibition of TNF-α pg/mL” value [5] was 60.54%.
Molecule `CC(=NNC(N)=O)c1ccc(NC(=O)c2cccnc2)cc1` [Compound 10, N-{4-[1-(2-Carbamoylhydrazineylidene)ethyl]phenyl}nicotinamide] has an IC50 [1] of 0.0636 ± 0.00331 µM, an IC50 [2] of 24.2 ± 0.06 µM and an IC50 [3] of 17.6 ± 0.048 µM.
For `C/C(=N\Nc1ccccc1)c1ccc(NC(=O)c2cccnc2)cc1` [II], the IC50 [6] is listed as 0.0231 µM.
For `O=C(NN=Cc1c[nH]c2ccccc12)c1ccc(NC(=O)c2cccnc2)cc1` [Compound 8, N-{4-[2-((1H-Indol-3-yl)methylene)hydrazine-1-carbonyl]phenyl}nicotinamide], the IC50 [1] was 0.23 ± 0.0102 µM, the IC50 [2] was 20.5 ± 0.052 µM and the IC50 [3] was 16.03 ± 0.051 µM.
For `C[C@@H]1C[C@H]2[C@@H]3CCC4=CC(=O)C=C[C@]4(C)[C@@]3(F)[C@@H](O)C[C@]2(C)[C@@]1(O)C(=O)CO` [Dexamethasone, reference compound], the “% Inhibition of IL6 pg/mL” value [4] was 93.15% and the “% Inhibition of TNF-α pg/mL” value [5] was 82.47%.
`O=C(NN=Cc1ccc(Cl)cc1)c1ccc(NC(=O)c2cccnc2)cc1` [Compound 6, N-{4-[2-(4-Chlorobenzylidene)hydrazine-1-carbonyl]phenyl}nicotinamide] gave an IC50 [1] of 0.0608 ± 0.00381 µM, an IC50 [2] of 9.3 ± 0.02 µM and an IC50 [3] of 7.8 ± 0.025 µM. The “Apoptosis Early” value [7] was 5.78%, the “Apoptosis Late” value [7] was 9.75% and the “Apoptosis Total” value [7] was 16.93. For the same molecule, the Necrosis [7] was 1.40%, the “% G0-G1” value [8] was 36.71% and the “% G2-M” value [8] was 35.84%. The “% Pre-G1” value [8] was 16.93%, the “% S” value [8] was 27.45% and the “% Inhibition of IL6 pg/mL” value [4] was 57.34%. The “% Inhibition of TNF-α pg/mL” value [5] was 66.42%.
